The values below come from patent US12269825B2, “Organic compounds” (INTRA-CELLULAR THERAPIES, INC., priority 2014, dated 2025).

Data set [1] in a line: In-vivo metabolism after oral administration. Particulars: oral administration to rats, dogs and humans. As to the method: (§1) In addition, the in-vivo metabolism of the Compound of Formula Q is studied after oral administration to rats, dogs and humans. Plasma levels after administration are determined in all three species for the Compounds of Formula Q through T. The results of the studies indicate that metabolism of the Compound of Formula Q is rapid, and that the N-demethyl compounds are highly polar and excreted rapidly. Results of human plasma studies on day 8 after 7 day dosing (120 mg, 4 doses/day) with the Compound of Formula Q are shown below: […]

Data set [2] in a line: Human plasma levels of Compounds Q through T after oral dosing with the Compound of Formula Q. Format: in vivo. To be noted: day 8 after 7 day dosing (120 mg, 4 doses/day) with the Compound of Formula Q. How it is done:
as §1

In the next data set the target is T1, CYP 3A4 (Homo sapiens, UniProt P08684).
T1 construct: from tissue
Kind of data set: In-vitro metabolism using subcellular fractions and isolated hepatocytes: N-demethylation. Format: in vitro ADME. The text has this: (§2) The in-vitro metabolism of the Compound of the Formula Q and its metabolites is studied using subcellular fractions and isolated hepatocytes. […] These two reductions are both catalyzed in the reverse direction (oxidation) by CYP 3A4.

In the next data set the test system is ketone reductase. Nature of the data set: In-vitro metabolism using subcellular fractions and isolated hepatocytes: ketone reduction. In kind it is in vitro ADME. Particulars: forms Compounds of Formula S and T, respectively.
Description: as §2

T1 sequence (P08684 whole entry, species assumed): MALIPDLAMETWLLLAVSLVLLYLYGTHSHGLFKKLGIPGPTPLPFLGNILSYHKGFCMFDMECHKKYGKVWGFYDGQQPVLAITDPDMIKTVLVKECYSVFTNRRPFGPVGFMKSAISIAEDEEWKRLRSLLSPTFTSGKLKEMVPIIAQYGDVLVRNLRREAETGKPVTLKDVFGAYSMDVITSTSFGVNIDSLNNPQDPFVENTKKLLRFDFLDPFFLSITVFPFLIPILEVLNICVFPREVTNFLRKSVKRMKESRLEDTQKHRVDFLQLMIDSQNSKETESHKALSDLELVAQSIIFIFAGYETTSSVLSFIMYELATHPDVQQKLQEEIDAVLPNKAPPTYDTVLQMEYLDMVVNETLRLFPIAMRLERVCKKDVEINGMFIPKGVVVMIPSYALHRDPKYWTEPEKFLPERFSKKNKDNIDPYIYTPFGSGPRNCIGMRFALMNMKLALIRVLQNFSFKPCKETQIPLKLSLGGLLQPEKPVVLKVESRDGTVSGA

The AUC is the area under the concentration-time curve, a measure of exposure. A higher AUC goes with high exposure. Usually Cmax stands for the maximum level reached in the sampled fluid or tissue. Usually Tmax stands for the time at which the peak concentration occurs. As to `CN1CCN2c3c(cccc31)[C@@H]1CN(CCCC(=O)c3ccc(F)cc3)CC[C@@H]12` [Compound Q, 4-((6bR,10aS)-3-methyl-2,3,6b,9,10,10a-hexahydro-1H-pyrido[3′,4′:4,5]pyrrolo[1,2,3-de]quinoxalin-8(7H)-yl)-1-(4-fluorophenyl)-1-butanone], the “rate of metabolism in vivo” value in data set [1] is “rapid”. Besides, in data set [2], the AUC is 347 ng·h/mL, the Cmax is 78 ng/mL and the Tmax was 2.5 h. In addition, the “metabolic route: N-demethylation” value at CYP 3A4 is listed as “N-demethylated to the Compound of Formula R via the P450 cytochrome oxidase isoform 3A4 (CYP 3A4)”. The “metabolic route: ketone reduction” value in the data set with ketone reductase is “undergo ketone reduction via the enzyme ketone reductase”.

As for `O=C(CCCN1CC[C@H]2[C@@H](C1)c1cccc3c1N2CCN3)c1ccc(F)cc1` [Compound R], in data set [2], the AUC stood at 170 ng·h/mL, the Cmax is 37 ng/mL and the Tmax was found to be 2.5 h.

As for `OC(CCCN1CC[C@H]2[C@@H](C1)c1cccc3c1N2CCN3)c1ccc(F)cc1` (stereo partly drawn) [Compound T], in data set [2], the AUC was 517 ng·h/mL, the Cmax amounted to 38 ng/mL and the Tmax came to 6 h.

For `CN1CCN2c3c(cccc31)[C@@H]1CN(CCCC(O)c3ccc(F)cc3)CC[C@@H]12` (stereo partly drawn) [Compound S], in data set [2], the AUC came out at 906 ng·h/mL, the Cmax was 79 ng/mL and the Tmax was 3.5 h.
